Tests used:
Conditions in all cases: 48 h
NOMO1 [1] = assay: AUC of viability dose-response curve (% viability x log10 dose units); higher = less sensitive
How it was run: (§1)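 Over 48 h at 37°C, leukemia cells in 1536-well plates (500 or 1000 cells/well), adapted to each medium, received library compounds in DMSO at 11 threefold doses from 47 μM to 0.79 nM. CellTiter-Glo One luminescence, normalised per plate to DMSO and cell-free wells, was fitted by a four-parameter log-logistic function of log10 dose. The area under the curve was then integrated by trapezoidal rule, after scaling curves above full viability and removing those that failed quality control.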

SEM cells [2] = assay: as above
How it was run: as §1

P12-Ichikawa [3] = assay: as above
How it was run: as §1

NOMO1 [4] = assay: cell viability relative to DMSO control; higher = less cytotoxic
How it was run: (§2)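 In 1536-well plates, 5 μl of leukemia cells were seeded per well: 500 cells/well for NOMO1 or SEM and 1000 cells/well for P12-Ichikawa. Each line had first been adapted for at least four passages in each medium. Library compounds in DMSO were pin-dosed at 11 threefold concentrations between 47 μM and 0.79 nM, and CellTiter-Glo One luminescence was read after 48 h at 37°C. Viability is a per-plate percentage relative to DMSO wells, with cell-free wells as background.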

SEM cells [5] = assay: as above
How it was run: as §2

P12-Ichikawa [6] = assay: as above
How it was run: as §2

N[C@H]2CN(CC12CC1)c3c(F)cc4c(c3Cl)[N@@](C=C(C4=O)C(=O)O)C5C[C@H]5F (some centres not stated)
AUC of viability dose-response curve
Conditions	NOMO1 [1]	P12-Ichikawa [3]	SEM cells [2]
HPLM + 10% dialyzed FBS	420	439	412
RPMI 5 mM glucose + 10% FBS	387	417	431
RPMI 5 mM glucose + 10% dialyzed FBS	413	395	398

cell viability [%]
Conditions	NOMO1 [4]	P12-Ichikawa [6]	SEM cells [5]
HPLM + 10% dialyzed FBS, 0.000781 µM	98.5	97.7	90.7
HPLM + 10% dialyzed FBS, 0.00234 µM	110	91.2	93.2
HPLM + 10% dialyzed FBS, 0.00702 µM	98.1	101	89.9
HPLM + 10% dialyzed FBS, 0.0211 µM	102	87.6	88.9
HPLM + 10% dialyzed FBS, 0.0632 µM	98.2	96.6	92.2
HPLM + 10% dialyzed FBS, 0.19 µM	89.5	89.8	86.4
HPLM + 10% dialyzed FBS, 0.569 µM	83.2	87.3	84.3
HPLM + 10% dialyzed FBS, 1.71 µM	84	96.1	84.7
HPLM + 10% dialyzed FBS, 5.12 µM	94	88.8	90.5
HPLM + 10% dialyzed FBS, 15.4 µM	50.4	85.4	60.6
HPLM + 10% dialyzed FBS, 46.1 µM	92.1	89.9	84.6
RPMI 5 mM glucose + 10% FBS, 0.000781 µM	83.7	79.9	107
RPMI 5 mM glucose + 10% FBS, 0.00234 µM	92	91	126
RPMI 5 mM glucose + 10% FBS, 0.00702 µM	89.1	88.8	112
RPMI 5 mM glucose + 10% FBS, 0.0211 µM	78.6	90.4	119
RPMI 5 mM glucose + 10% FBS, 0.0632 µM	90.2	85.8	103
RPMI 5 mM glucose + 10% FBS, 0.19 µM	83.5	94.5	136
RPMI 5 mM glucose + 10% FBS, 0.569 µM	72.1	83	73.2
RPMI 5 mM glucose + 10% FBS, 1.71 µM	82	82.9	113
RPMI 5 mM glucose + 10% FBS, 5.12 µM	75.2	95	103
RPMI 5 mM glucose + 10% FBS, 15.4 µM	48.4	83.5	74.6
RPMI 5 mM glucose + 10% FBS, 46.1 µM	97.1	86.1	95.4
RPMI 5 mM glucose + 10% dialyzed FBS, 0.000781 µM	76.7	80.7	71.1
RPMI 5 mM glucose + 10% dialyzed FBS, 0.00234 µM	91	84.8	83
RPMI 5 mM glucose + 10% dialyzed FBS, 0.00702 µM	91.2	86	92.4
RPMI 5 mM glucose + 10% dialyzed FBS, 0.0211 µM	94.9	88.3	83.8
RPMI 5 mM glucose + 10% dialyzed FBS, 0.0632 µM	98.1	82.5	92.2
RPMI 5 mM glucose + 10% dialyzed FBS, 0.19 µM	86.5	85.2	92.5
RPMI 5 mM glucose + 10% dialyzed FBS, 0.569 µM	81.9	80.9	75.6
RPMI 5 mM glucose + 10% dialyzed FBS, 1.71 µM	91.3	78	98.6
RPMI 5 mM glucose + 10% dialyzed FBS, 5.12 µM	89.8	84.2	91
RPMI 5 mM glucose + 10% dialyzed FBS, 15.4 µM	69	77.7	50.1
RPMI 5 mM glucose + 10% dialyzed FBS, 46.1 µM	77	81.3	78.7

CC(=O)c1cnc2ccc(-c3cc(Cl)c(O)c(Cl)c3)nc2c1N[C@H]1CC[C@H](CN(C)C)CC1
AUC of viability dose-response curve
Conditions	NOMO1 [1]	P12-Ichikawa [3]	SEM cells [2]
HPLM + 10% dialyzed FBS	211	277	218
RPMI 5 mM glucose + 10% FBS	237	256	213
RPMI 5 mM glucose + 10% dialyzed FBS	237	253	208

SEM cells [5], HPLM + 10% dialyzed FBS
Conditions	cell viability [%]
0.000781 µM	110
0.00234 µM	101
0.00702 µM	105
0.0211 µM	99.2
0.0632 µM	63.5
0.19 µM	25.4
0.569 µM	16.2
1.71 µM	6.2
5.12 µM	6.52
15.4 µM	5.71
46.1 µM	6.59

ClC1=CC=C2N/C3=N/C(=O)CN3CC2=C1Cl
AUC of viability dose-response curve
Conditions	NOMO1 [1]	P12-Ichikawa [3]	SEM cells [2]
HPLM + 10% dialyzed FBS	456	464	468
RPMI 5 mM glucose + 10% FBS	445	456	446
RPMI 5 mM glucose + 10% dialyzed FBS	410	452	456

cell viability [%]
Conditions	P12-Ichikawa [6]	SEM cells [5]
HPLM + 10% dialyzed FBS, 0.000781 µM	120	123
HPLM + 10% dialyzed FBS, 0.00234 µM	122	124
HPLM + 10% dialyzed FBS, 0.00702 µM	126	120
HPLM + 10% dialyzed FBS, 0.0211 µM	130	134
HPLM + 10% dialyzed FBS, 0.0632 µM	115	126
HPLM + 10% dialyzed FBS, 0.19 µM	122	119
HPLM + 10% dialyzed FBS, 0.569 µM	118	132
HPLM + 10% dialyzed FBS, 1.71 µM	115	138
HPLM + 10% dialyzed FBS, 5.12 µM	114	125
HPLM + 10% dialyzed FBS, 15.4 µM	112	115
HPLM + 10% dialyzed FBS, 46.1 µM	82.2	105
RPMI 5 mM glucose + 10% dialyzed FBS, 0.000781 µM	125	–
RPMI 5 mM glucose + 10% dialyzed FBS, 0.00234 µM	119	–
RPMI 5 mM glucose + 10% dialyzed FBS, 0.00702 µM	130	–
RPMI 5 mM glucose + 10% dialyzed FBS, 0.0211 µM	117	–
RPMI 5 mM glucose + 10% dialyzed FBS, 0.0632 µM	124	–
RPMI 5 mM glucose + 10% dialyzed FBS, 0.19 µM	127	–
RPMI 5 mM glucose + 10% dialyzed FBS, 0.569 µM	118	–
RPMI 5 mM glucose + 10% dialyzed FBS, 1.71 µM	118	–
RPMI 5 mM glucose + 10% dialyzed FBS, 5.12 µM	107	–
RPMI 5 mM glucose + 10% dialyzed FBS, 15.4 µM	105	–
RPMI 5 mM glucose + 10% dialyzed FBS, 46.1 µM	68.7	–

Cc1cn[nH]c1
AUC of viability dose-response curve
Conditions	NOMO1 [1]	P12-Ichikawa [3]	SEM cells [2]
HPLM + 10% dialyzed FBS	456	461	456
RPMI 5 mM glucose + 10% FBS	471	469	458
RPMI 5 mM glucose + 10% dialyzed FBS	465	461	476

cell viability [%], SEM cells [5]
Conditions	HPLM + 10% dialyzed FBS	RPMI 5 mM glucose + 10% dialyzed FBS
0.000781 µM	89.9	106
0.00234 µM	115	121
0.00702 µM	121	119
0.0211 µM	115	131
0.0632 µM	118	123
0.19 µM	122	131
0.569 µM	121	138
1.71 µM	121	123
5.12 µM	114	143
15.4 µM	69	94.6
46.1 µM	95.6	115

CC(C)(O)CCc1ccc(OCc2cc(-c3cccc(OC(F)F)c3)c3ncccc3c2)cc1
AUC of viability dose-response curve
Conditions	NOMO1 [1]	P12-Ichikawa [3]	SEM cells [2]
HPLM + 10% dialyzed FBS	468	466	435
RPMI 5 mM glucose + 10% FBS	457	457	445
RPMI 5 mM glucose + 10% dialyzed FBS	460	456	469

SEM cells [5], HPLM + 10% dialyzed FBS
Conditions	cell viability [%]
0.000781 µM	96
0.00234 µM	98.7
0.00702 µM	108
0.0211 µM	118
0.0632 µM	113
0.19 µM	126
0.569 µM	115
1.71 µM	127
5.12 µM	137
15.4 µM	119
46.1 µM	134

CC(C)(O)[C@H]1CC[C@@](C)([C@H]2[C@@H](O)C[C@@]3(C)[C@@H]4C[C@H](O[C@@H]5O[C@H](CO)[C@@H](O)[C@H](O)[C@H]5O)[C@H]5C(C)(C)[C@@H](O[C@@H]6OC[C@@H](O)[C@H](O)[C@H]6O)CC[C@@]56C[C@@]46CC[C@]23C)O1
AUC of viability dose-response curve
Conditions	NOMO1 [1]	P12-Ichikawa [3]	SEM cells [2]
HPLM + 10% dialyzed FBS	464	456	454
RPMI 5 mM glucose + 10% FBS	446	451	465
RPMI 5 mM glucose + 10% dialyzed FBS	449	450	466

cell viability [%], SEM cells [5]
Conditions	HPLM + 10% dialyzed FBS	RPMI 5 mM glucose + 10% FBS
0.000781 µM	118	119
0.00234 µM	118	123
0.00702 µM	121	133
0.0211 µM	124	120
0.0632 µM	128	124
0.19 µM	126	123
0.569 µM	129	130
1.71 µM	117	121
5.12 µM	89.2	108
15.4 µM	109	105
46.1 µM	106	128

C[C@@H]1C/C=C/C=C/C=C/C=C/[C@@H](O[C@@H]2O[C@H](C)[C@@H](O)[C@H](N)[C@@H]2O)C[C@@H]2O[C@](O)(C[C@@H](O)C[C@@H]3O[C@H]3/C=C/C(=O)O1)C[C@H](O)[C@H]2C(=O)O
AUC of viability dose-response curve
Conditions	NOMO1 [1]	P12-Ichikawa [3]	SEM cells [2]
HPLM + 10% dialyzed FBS	449	439	475
RPMI 5 mM glucose + 10% FBS	460	466	461
RPMI 5 mM glucose + 10% dialyzed FBS	457	461	462

SEM cells [5], HPLM + 10% dialyzed FBS
Conditions	cell viability [%]
0.000781 µM	108
0.00234 µM	120
0.00702 µM	103
0.0211 µM	129
0.0632 µM	131
0.19 µM	119
0.569 µM	124
1.71 µM	106
5.12 µM	115
15.4 µM	120
46.1 µM	114
